In patent publication US7098218B2, “Steroidal compounds for inhibiting steroid sulphatase” (priority 2001, dated 2006):
“And” between values parts separate entries of the source, which are not always exact repeats. Equal values may be shown once.

What was measured:
[1] = target: T1, E2DH Type II (HSD Type II) in MDA-MB231 breast cancer cells (Homo sapiens, UniProt P37059); experiment: Conversion of oestradiol to oestrone in intact MDA-MB231 cell monolayers (Protocol 7); format: cell-based; settings: MDA-MB-231, measured at 10 μM, read-out: % Inhibition E2 → E1 ± SD (HSD Type II)
T1 construct: endogenous in cells; host or cells: MDA-MB-231 breast cancer cells
T1 sequence (P37059 1-387): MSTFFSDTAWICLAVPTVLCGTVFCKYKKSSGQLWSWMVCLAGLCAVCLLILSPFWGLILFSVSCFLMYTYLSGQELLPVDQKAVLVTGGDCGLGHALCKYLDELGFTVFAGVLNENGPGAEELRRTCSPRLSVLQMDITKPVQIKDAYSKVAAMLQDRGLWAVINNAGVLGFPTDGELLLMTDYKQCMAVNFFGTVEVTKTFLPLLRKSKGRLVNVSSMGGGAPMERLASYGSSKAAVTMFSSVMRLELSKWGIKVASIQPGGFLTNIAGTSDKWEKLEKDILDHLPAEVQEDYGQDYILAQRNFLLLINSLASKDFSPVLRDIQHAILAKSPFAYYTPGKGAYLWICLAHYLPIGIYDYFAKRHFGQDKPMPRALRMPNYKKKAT
Protocol: (§1) The ability of compounds to inhibit steroid dehydrogenase activity can be assessed using either T47D breast cancer cells in which E2HSD Type I activity is abundant or MDA-MB-231 cells for Type II inhibitor studies. In both cell lines formation of products is linear with respect to time and cell numbers. Details on a suitable Assay Protocol are presented in the Examples section.
(§2) Conversion of oestrone to oestradiol (E1→E2, E2DH Type I) and oestradiol to oestrone (E2→E1, E2DH Type II) was measured in intact cell monolayers of T47D and MDA-MB231 breast cancer cells respectively. Cells were cultured in flasks until they were 80–90% confluent. ^3 H-E1 or ^3H-E2 (6 pmol, ˜90 Ci/mmol) were added to each flask in the absence (control) or presence of various test compounds (10 μM) in 2.5 ml of medium. Substrate was also added to flasks without cells and incubated in parallel (blanks).
(§3) After incubation with T47D cells for 30 min or MDA cells for 3 h at 37° C., 2 ml of the medium was added to test tubes containing ^14C-E2 or ^14C-E1 (˜5000 cpm) and 50 μg E2 or E1 respectively. Steroids were extracted from the aqueous medium with diethyl ether (4 ml). The ether phase was decanted into separate tubes after freezing the aqueous phase in solid carbon dioxide-methanol mixture. The ether was evaporated to dryness under a stream of air at 40° C. The residue was dissolved in a small volume of diethyl ether and applied to TLC plates containing a fluorescent indicator. E1 and E2 were separated by TLC using DCM-Ethyl acetate (4:1 v/v). The position of the product from each incubation flask was marked on the TLC plate after visualisation under UV light. The marked regions were cut out and placed in scintillation vials containing methanol (0.5 ml) to elute the product. The amount of ^3 H-product formed and ^14C-E1 or ^14C-E2 recovered were calculated after scintillation spectrometry. The amount of product formed was corrected for procedural losses and for the number of cells in each flask.

[2] = target: T2, E2DH Type I (HSD Type I) in T47D breast cancer cells (Homo sapiens, UniProt P14061); experiment: Conversion of oestrone to oestradiol in intact T47D cell monolayers (Protocol 7); format: cell-based; settings: measured at 10 μM; for inhibition at 10 µM: T47D, read-out: % Inhibition E1 → E2 ± SD (HSD Type I)
T2 construct: T47D breast cancer cells in which E2HSD Type I activity is abundant; endogenous in cells; host or cells: T47D breast cancer cells
T2 sequence (P14061 2-328 limits assumed): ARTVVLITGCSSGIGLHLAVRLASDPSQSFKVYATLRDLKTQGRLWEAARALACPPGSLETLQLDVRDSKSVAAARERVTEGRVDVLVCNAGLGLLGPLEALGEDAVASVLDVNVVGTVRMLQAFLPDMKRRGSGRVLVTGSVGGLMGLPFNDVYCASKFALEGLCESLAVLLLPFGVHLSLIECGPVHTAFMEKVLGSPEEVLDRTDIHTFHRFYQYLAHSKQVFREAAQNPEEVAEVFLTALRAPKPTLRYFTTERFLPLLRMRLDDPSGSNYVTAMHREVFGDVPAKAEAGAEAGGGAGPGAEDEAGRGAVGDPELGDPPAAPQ
Protocol: as §1, §2, §3

[3] = target: T3, STS (Homo sapiens, UniProt P08842); experiment: biochemical; settings: STS IC50 (nM), inhibition of E1S→E1; Table 1
T3 construct: can be assessed using either intact MCF-7 breast cancer cells or placental microsomes
T3 sequence (P08842 22-583): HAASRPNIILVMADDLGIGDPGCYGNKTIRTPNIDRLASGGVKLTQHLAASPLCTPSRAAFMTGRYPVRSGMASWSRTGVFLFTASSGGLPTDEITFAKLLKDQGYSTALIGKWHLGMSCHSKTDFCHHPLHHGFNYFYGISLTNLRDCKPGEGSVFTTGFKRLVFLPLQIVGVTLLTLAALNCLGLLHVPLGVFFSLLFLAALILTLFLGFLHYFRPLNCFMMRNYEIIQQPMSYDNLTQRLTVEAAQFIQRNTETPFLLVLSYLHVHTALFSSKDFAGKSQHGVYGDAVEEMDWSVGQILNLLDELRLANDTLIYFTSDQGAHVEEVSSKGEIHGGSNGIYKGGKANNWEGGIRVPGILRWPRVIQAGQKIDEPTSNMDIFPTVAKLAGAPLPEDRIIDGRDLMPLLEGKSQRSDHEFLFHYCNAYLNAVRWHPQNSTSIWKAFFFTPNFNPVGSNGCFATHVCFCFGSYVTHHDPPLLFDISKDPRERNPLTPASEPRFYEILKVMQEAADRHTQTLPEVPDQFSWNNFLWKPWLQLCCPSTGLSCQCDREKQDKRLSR

| SMILES | inhibition at 10 µM [1] [%] | inhibition at 10 µM [2] [%] | % Inhibition E1 → E2 ± SD (HSD Type I) ([2]; 10 µM) [%] | IC50 [3] |
| --- | --- | --- | --- | --- |
| C[C@]12CCC3c4ccc(O)cc4CCC3C1CC(=O)N(Cc1ccccc1)C2=O (stereo partly drawn) [compound 233] | 35.8 ± 3.88 | 58.8 ± 0.68 | 57.43 ± 1.89 |  |
| C[C@]12CCC3c4ccc(O)cc4CCC3C1CC(=O)N(Cc1cccnc1)C2=O (stereo partly drawn) [compound 234] | -1.45 ± 11.4 | 25.8 ± 9.27 |  |  |
| C[C@]12CCC3c4ccc(O)cc4CCC3C1CC(=O)N(CCCCBr)C2=O (stereo partly drawn) [compound 235] | 10.7 ± 0.78 | 16.6 ± 1.46 |  |  |
| C[C@]12CCC3c4ccc(OS(N)(=O)=O)cc4CCC3C1CC(=O)N(Cc1ccccc1)C2=O (stereo partly drawn) [compound 236] | 5.84 ± 11.8 | 20.4 ± 6.25 |  | 280 nM |
| C[C@]12CCC3c4ccc(OS(N)(=O)=O)cc4CCC3C1CC(=O)N(Cc1cccnc1)C2=O (stereo partly drawn) [compound 237] |  | -2 |  |  |
| C=CCN1C(=O)CC2C3CCc4cc(O)ccc4C3CC[C@]2(C)C1=O (stereo partly drawn) [compound 274] | -4.04 ± 0.36 | 36.82 ± 0.36 |  |  |
| CCN1C(=O)CC2C3CCc4cc(O)ccc4C3CC[C@]2(C)C1=O (stereo partly drawn) [compound 275] | 32.1 ± 1.06 | 42.5 ± 3.02 |  |  |
| CCCCCCN1C(=O)CC2C3CCc4cc(O)ccc4C3CC[C@]2(C)C1=O (stereo partly drawn) [compound 276] | 8.32 ± 7.5 | 22.7 ± 2.2 |  |  |
| CCCCN1C(=O)CC2C3CCc4cc(O)ccc4C3CC[C@]2(C)C1=O (stereo partly drawn) [compound 277] | 13.2 ± 9.74 | 18.6 ± 0.89 |  |  |
| C[C@]12CCC3c4ccc(O)cc4CCC3C1CC(=O)N(CC1CC1)C2=O (stereo partly drawn) [compound 278] | 8.31 ± 2.46 | 24.2 ± 1.71 |  |  |
| CC(C)(C)c1ccc(CN2C(=O)CC3C4CCc5cc(O)ccc5C4CC[C@]3(C)C2=O)cc1 (stereo partly drawn) [compound 279] | 3.87 ± 4.97 | 16 ± 0.88 |  |  |
| C=CCN1C(=O)CC2C3CCc4cc(OS(N)(=O)=O)ccc4C3CC[C@]2(C)C1=O (stereo partly drawn) [compound 280] |  |  |  | 75 nM |
| CCN1C(=O)CC2C3CCc4cc(OS(N)(=O)=O)ccc4C3CC[C@]2(C)C1=O (stereo partly drawn) [compound 281] | 20.4 ± 3.14 | 24.7 ± 2.39 |  | 52 nM and 24 nM and 29 nM |
| CCCCCCN1C(=O)CC2C3CCc4cc(OS(N)(=O)=O)ccc4C3CC[C@]2(C)C1=O (stereo partly drawn) [compound 282] |  |  |  | 288 nM |
| CCCCN1C(=O)CC2C3CCc4cc(OS(N)(=O)=O)ccc4C3CC[C@]2(C)C1=O (stereo partly drawn) [compound 283] |  |  |  | 382 nM |
| CC(C)(C)c1ccc(CN2C(=O)CC3C4CCc5cc(OS(N)(=O)=O)ccc5C4CC[C@]3(C)C2=O)cc1 (stereo partly drawn) [compound 285] | 3.56 ± 4.89 | 22.5 ± 3.72 |  | 23 nM |
| C[C@]12CCC3c4ccc(OS(N)(=O)=O)cc4CCC3C1CC(=O)N(CCCCBr)C2=O (stereo partly drawn) [compound 286] | -2.98 ± 0.38 | 26 ± 3.23 |  |  |
| COc1cc2c(cc1O)CCC1C2CC[C@]2(C)C(=O)NC(=O)CC12 (stereo partly drawn) [compound 325] | -20.2 ± 14.8 | 7.78 ± 2.45 |  |  |
| COc1cc2c(cc1OS(N)(=O)=O)CCC1C2CC[C@]2(C)C(=O)NC(=O)CC12 (stereo partly drawn) [compound 326] | 15 ± 1.22 | 7.5 ± 12.4 |  | 309 nM |
